Experimental data taken from patent publication US20140186271A1, “REDUCING DENTAL CARIES” (UNIVERSITY OF ROCHESTER, priority 2011, published 2014).
≈ marks a conversion by molar mass, not a printed value.

How the values were obtained:
Assay type in all cases: cell-based
[1] = system: Streptococcus mutans UA159; assay: growth of S. mutans in planktonic culture (optical density at 600 nm, BHI medium); conditions: rich medium, FIG. 1
Description: Bacterial Strain. The strain of Streptococcus mutans used in these experiments is referred to as UA159, the genomic type strain of these organisms (Murchison et al., Infect. Immun. 54(2):273-82 (1986); Ajdic et al., Proc. Natl. Acad. Sci. USA 99(22):14434-9 (2002)). Growth experiments. Two types of growth experiments were conducted: growth of the organism in planktonic culture and growth of the organism in a mono-species biofilm culture. In the planktonic culture experiments, the effects of simvastatin concentration on the growth ability of Streptococcus mutans UA159 was determined. In the second set of experiments, the effects of simvastatin concentration on the ability of S. mutans to produce extracellular polysaccharides (EPS), which is highly related to its ability to grow and survive on the surfaces of teeth (Yamashita et al., Infect. Immun 61(9):3811-7 (1993)), was determined. The planktonic experiments were conducted by growing S. mutans in Brain Heart Infusion medium (BHI) supplemented with specific concentrations of simvastatin dissolved in 1% ethanol/99% water. Simvastatin was obtained from Sigma Chemical Co. (St. Louis, Mo.). Growth was monitored as increasing optical density at 600 nm, using a BioScreen C automated-recording instrument, set at 37° C. and with shaking set at 10 seconds, every 15 minutes, to ensure suspension of the culture (Growth Curves USA, N.J.). […]

E. faecalis = assay: minimum inhibitory concentration against a panel of human pathogens; conditions: Enterococcus faecalis
Description: (§1) Using well established methodologies, the minimum inhibitory concentration of simvastatin was determined against a panel of human pathogens.

E. faecium = assay: as above; conditions: Enterococcus faecium
Description: as §1

Klebsiella = assay: as above
Description: as §1

P. aeruginosa = assay: as above; conditions: Pseudomonas aeruginosa
Description: as §1

S. aureus = assay: as above; conditions: Staphylococcus aureus
Description: as §1

S. mutans = assay: as above; conditions: Streptococcus mutans
Description: as §1

**Q.** What does the source list for `CCC(C)(C)C(=O)O[C@H]1C[C@@H](C)C=C2C=C[C@H](C)[C@H](CC[C@@H]3C[C@@H](O)CC(=O)O3)[C@H]21` [simvastatin]?
**A.** concentration at which growth was effectively halted [1]: ≥ 64 µg/mL; MIC (E. faecalis): 64 µg/mL (≈ 153 µM); MIC (E. faecium): 64 µg/mL (≈ 153 µM); MIC (Klebsiella): 64 µg/mL (≈ 153 µM); MIC (P. aeruginosa): > 256 µg/mL; MIC (S. aureus): 64 µg/mL (≈ 153 µM); MIC (S. mutans): 16 µg/mL (≈ 38.2 µM)
